Literature values in patent US20090118503A1, “FAAH INHIBITORS” (priority 2007, published 2009).

What was measured:
[1] = tested on: prostaglandin synthesis
[2] = tested on: MCF-7 cells; conditions: up to 100 μM

Compound | ability to inhibit prostaglandin synthesis [1] | cell viability (as assessed by trypan blue) [2]
Cc1c(CC(=O)O)c2cc(O)ccc2n1C(=O)c1ccc(Cl)cc1 [desmethyl metabolite, (1-(4-chlorobenzoyl)-5-hydroxy-2-methyl-1H-indol-3-yl]acetic acid] | some ability to inhibit prostaglandin synthesis | –
CCCCC/C=C\C/C=C\C/C=C\C/C=C\CCCC(=O)NCCO [anandamide] | – | No significant decrease in cell viability
